From PubChem BioAssay (NCI)
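Exposure lasted 48 hours, with cells grown in 96-well plates and compounds tested at five concentrations. GI50 is the concentration that inhibits growth by half. TGI is the concentration that stops growth completely.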

Key:
Assay in all cases: growth of human tumour cells (NCI), 48 h
786-0 renal = tested on: 786-0 renal
A498 renal = tested on: A498 renal
A549 NSCLC = tested on: A549 NSCLC
ACHN renal = tested on: ACHN renal
BT-549 breast = tested on: BT-549 breast
CAKI-1 renal = tested on: CAKI-1 renal
CCRF-CEM leukemia = tested on: CCRF-CEM leukemia
COLO 205 colon = tested on: COLO 205 colon
DU-145 prostate = tested on: DU-145 prostate
EKVX NSCLC = tested on: EKVX NSCLC
HCC-2998 colon = tested on: HCC-2998 colon
HCT-116 colon = tested on: HCT-116 colon
HCT-15 colon = tested on: HCT-15 colon
HL-60(TB) leukemia = tested on: HL-60(TB) leukemia
HOP-62 NSCLC = tested on: HOP-62 NSCLC
HOP-92 NSCLC = tested on: HOP-92 NSCLC
HS 578T breast = tested on: HS 578T breast
HT29 colon = tested on: HT29 colon
IGROV1 ovarian = tested on: IGROV1 ovarian
K-562 leukemia = tested on: K-562 leukemia
KM12 colon = tested on: KM12 colon
LOX IMVI melanoma = tested on: LOX IMVI melanoma
M14 melanoma = tested on: M14 melanoma
MALME-3M melanoma = tested on: MALME-3M melanoma
MCF7 breast = tested on: MCF7 breast
MDA-MB-231 breast = tested on: MDA-MB-231 breast
MDA-MB-435 = tested on: MDA-MB-435
MOLT-4 leukemia = tested on: MOLT-4 leukemia
NCI-H226 lung = tested on: NCI-H226 lung
NCI-H460 lung = tested on: NCI-H460 lung
NCI-H522 lung = tested on: NCI-H522 lung
NCI/ADR-RES ovarian = tested on: NCI/ADR-RES ovarian
OVCAR-3 ovarian = tested on: OVCAR-3 ovarian
OVCAR-4 ovarian = tested on: OVCAR-4 ovarian
OVCAR-5 ovarian = tested on: OVCAR-5 ovarian
OVCAR-8 ovarian = tested on: OVCAR-8 ovarian
PC-3 prostate = tested on: PC-3 prostate
RPMI-8226 leukemia = tested on: RPMI-8226 leukemia
RXF 393 renal = tested on: RXF 393 renal
SF-268 CNS = tested on: SF-268 CNS
SF-295 CNS = tested on: SF-295 CNS
SF-539 CNS = tested on: SF-539 CNS
SK-MEL-2 melanoma = tested on: SK-MEL-2 melanoma
SK-MEL-28 melanoma = tested on: SK-MEL-28 melanoma
SK-MEL-5 melanoma = tested on: SK-MEL-5 melanoma
SK-OV-3 ovarian = tested on: SK-OV-3 ovarian
SN12C renal = tested on: SN12C renal
SNB-19 CNS = tested on: SNB-19 CNS
SNB-75 CNS = tested on: SNB-75 CNS
SR leukemia = tested on: SR leukemia
SW-620 colon = tested on: SW-620 colon
T-47D breast = tested on: T-47D breast
TK-10 renal = tested on: TK-10 renal
U251 CNS = tested on: U251 CNS
UACC-257 melanoma = tested on: UACC-257 melanoma
UACC-62 melanoma = tested on: UACC-62 melanoma
UO-31 renal = tested on: UO-31 renal

## O=C(Nc1ccc(Cl)c(C(F)(F)F)c1)Nc1ccc2c(ccn2C(=O)c2cccc(F)c2)c1
786-0 renal
  GI50: 2.63 µM
  TGI: 11.1 µM
A498 renal
  GI50: 2.67 µM
  TGI: 9.86 µM
A549 NSCLC
  GI50: 2.9 µM
  TGI: 22.7 µM
ACHN renal
  GI50: 2.56 µM
  TGI: 7.47 µM
BT-549 breast
  GI50: 2.61 µM
  TGI: 8.98 µM
CAKI-1 renal
  GI50: 2.16 µM
  TGI: 9.07 µM
CCRF-CEM leukemia
  GI50: 3.78 µM
  TGI: > 100 µM
COLO 205 colon
  GI50: 2.25 µM
  TGI: 5.57 µM
DU-145 prostate
  GI50: 3.5 µM
  TGI: 48.8 µM
EKVX NSCLC
  GI50: 2.2 µM
  TGI: 7.8 µM
HCC-2998 colon
  GI50: 2.49 µM
  TGI: 9.04 µM
HCT-116 colon
  GI50: 3 µM
  TGI: 10.6 µM
HCT-15 colon
  GI50: 2.37 µM
  TGI: 9.7 µM
HL-60(TB) leukemia
  GI50: 2.33 µM
  TGI: 7.82 µM
HOP-62 NSCLC
  GI50: 2.45 µM
  TGI: 7.81 µM
HOP-92 NSCLC
  GI50: 2.07 µM
  TGI: 5.77 µM
HS 578T breast
  GI50: 2.8 µM
  TGI: 8.55 µM
HT29 colon
  GI50: 3.16 µM
  TGI: 50.8 µM
IGROV1 ovarian
  GI50: 2.75 µM
  TGI: 10.6 µM
K-562 leukemia
  GI50: 3.15 µM
  TGI: 16.4 µM
KM12 colon
  GI50: 2.83 µM
  TGI: 12 µM
LOX IMVI melanoma
  GI50: 1.43 µM
  TGI: 3.28 µM
M14 melanoma
  GI50: 3.22 µM
  TGI: 16.8 µM
MALME-3M melanoma
  GI50: 1.92 µM
  TGI: 5.87 µM
MCF7 breast
  GI50: 2.12 µM
  TGI: 7.66 µM
MDA-MB-231 breast
  GI50: 2.91 µM
  TGI: 11 µM
MDA-MB-435
  GI50: 2.84 µM
  TGI: 14.1 µM
MOLT-4 leukemia
  GI50: 3.4 µM
  TGI: > 100 µM
NCI-H226 lung
  GI50: 2.46 µM
  TGI: 7.5 µM
NCI-H460 lung
  GI50: 2.8 µM
  TGI: 10 µM
NCI-H522 lung
  GI50: 2.42 µM
  TGI: 7.67 µM
NCI/ADR-RES ovarian
  GI50: 2.5 µM
  TGI: 7.25 µM
OVCAR-3 ovarian
  GI50: 2.16 µM
  TGI: 6.2 µM
OVCAR-4 ovarian
  GI50: 2.98 µM
  TGI: > 100 µM
OVCAR-5 ovarian
  GI50: 4.86 µM
  TGI: 38.9 µM
OVCAR-8 ovarian
  GI50: 3.15 µM
  TGI: 17.9 µM
PC-3 prostate
  GI50: 2.92 µM
  TGI: 33.5 µM
RPMI-8226 leukemia
  GI50: 2.78 µM
  TGI: 10.9 µM
RXF 393 renal
  GI50: 1.74 µM
  TGI: 4.08 µM
SF-268 CNS
  GI50: 3.43 µM
  TGI: > 100 µM
SF-295 CNS
  GI50: 1.93 µM
  TGI: 4.76 µM
SF-539 CNS
  GI50: 2.71 µM
  TGI: 8.26 µM
SK-MEL-2 melanoma
  GI50: 2.36 µM
  TGI: 6.89 µM
SK-MEL-28 melanoma
  GI50: 3.37 µM
  TGI: 19.6 µM
SK-MEL-5 melanoma
  GI50: 2.4 µM
  TGI: 6.64 µM
SK-OV-3 ovarian
  GI50: 2.79 µM
  TGI: 8.99 µM
SN12C renal
  GI50: 3.1 µM
  TGI: 15.8 µM
SNB-19 CNS
  GI50: 3.18 µM
  TGI: 14.1 µM
SNB-75 CNS
  GI50: 1.9 µM
  TGI: 9.11 µM
SR leukemia
  GI50: 2.13 µM
  TGI: 9.12 µM
SW-620 colon
  GI50: 3.5 µM
  TGI: 35.8 µM
T-47D breast
  GI50: 2.53 µM
  TGI: 9.11 µM
TK-10 renal
  GI50: 2.91 µM
  TGI: 36.5 µM
U251 CNS
  GI50: 3.01 µM
  TGI: 11.4 µM
UACC-257 melanoma
  GI50: 2.44 µM
  TGI: 7.74 µM
UACC-62 melanoma
  GI50: 2.53 µM
  TGI: 15.3 µM
UO-31 renal
  GI50: 1.7 µM
  TGI: 4.42 µM
